Experimental data as given in ChEMBL document CHEMBL3045787, “Synthesis of novel 1,4-naphthoquinone derivatives: antibacterial and antifungal agents” (2013).
≈ marks a conversion by molar mass, not a printed value. Calls of active or inactive are those of the source. The rule behind the calls is not given here.

How the values were obtained:
[1] = system: Escherichia coli; experiment: Antibacterial activity against Escherichia coli B 906 assessed as growth inhibition at 0.5% after 24 hr by agar disk diffusion method; assay type: functional
[2] = system: Escherichia coli; experiment: Antibacterial activity against Escherichia coli B 906 assessed as growth inhibition at 0.1% after 24 hr by agar disk diffusion method; assay type: functional
[3] = system: Aspergillus niger; experiment: Antifungal activity against Aspergillus niger assessed as growth inhibition after 24 to 72 hr by serial dilution method; assay type: functional
[4] = system: Yamadazyma tenuis; experiment: Antifungal activity against Candida tenuis assessed as growth inhibition after 24 to 72 hr by serial dilution method; assay type: functional
[5] = system: Mycobacterium; experiment: Antibacterial activity against Mycobacterium luteum B-917 assessed as growth inhibition after 24 to 72 hr by serial dilution method; assay type: functional
[6] = system: Staphylococcus aureus; experiment: Antibacterial activity against Staphylococcus aureus 209-P assessed as growth inhibition after 24 to 72 hr by serial dilution method; assay type: functional
[7] = system: Escherichia coli; experiment: Antibacterial activity against Escherichia coli B 906 assessed as growth inhibition after 24 to 72 hr by serial dilution method; assay type: functional, organism-based
[8] = system: Aspergillus niger; experiment: Antifungal activity against Aspergillus niger assessed as growth inhibition at 0.1% after 48 to 72 hr by agar disk diffusion method; assay type: functional
[9] = system: Aspergillus niger; experiment: Antifungal activity against Aspergillus niger assessed as growth inhibition at 0.5% after 48 to 72 hr by agar disk diffusion method; assay type: functional
[10] = system: Yamadazyma tenuis; experiment: Antifungal activity against Candida tenuis assessed as growth inhibition at 0.1% after 48 to 72 hr by agar disk diffusion method; assay type: functional
[11] = system: Yamadazyma tenuis; experiment: Antifungal activity against Candida tenuis assessed as growth inhibition at 0.5% after 48 to 72 hr by agar disk diffusion method; assay type: functional
[12] = system: Mycobacterium; experiment: Antibacterial activity against Mycobacterium luteum B-917 assessed as growth inhibition at 0.1% after 24 hr by agar disk diffusion method; assay type: functional
[13] = system: Mycobacterium; experiment: Antibacterial activity against Mycobacterium luteum B-917 assessed as growth inhibition at 0.5% after 24 hr by agar disk diffusion method; assay type: functional
[14] = system: Staphylococcus aureus; experiment: Antibacterial activity against Staphylococcus aureus 209-P assessed as growth inhibition at 0.1% after 24 hr by agar disk diffusion method; assay type: functional
[15] = system: Staphylococcus aureus; experiment: Antibacterial activity against Staphylococcus aureus 209-P assessed as growth inhibition at 0.5% after 24 hr by agar disk diffusion method; assay type: functional

| Compound | diameter of the inhibition zone (DIZ) [1] [mm] | diameter of the inhibition zone (DIZ) [2] [mm] | MIC [3] | MIC [4] | MIC [5] | MIC [6] | MIC [7] | diameter of the inhibition zone (DIZ) [8] [mm] | diameter of the inhibition zone (DIZ) [9] [mm] | diameter of the inhibition zone (DIZ) [10] [mm] | diameter of the inhibition zone (DIZ) [11] [mm] | diameter of the inhibition zone (DIZ) [12] [mm] | diameter of the inhibition zone (DIZ) [13] [mm] | diameter of the inhibition zone (DIZ) [14] [mm] | diameter of the inhibition zone (DIZ) [15] [mm] | inhibition zone (IZ) [8] [mm] | inhibition zone (IZ) [10] [mm] |
| --- | --- | --- | --- | --- | --- | --- | --- | --- | --- | --- | --- | --- | --- | --- | --- | --- | --- |
| O=C1C(Sc2ccc(O)cc2)=C(Sc2ccc(O)cc2)C(=O)c2ccccc21 | 0 | 0 | 7.8 µg/mL (≈ 19.2 µM) | 7.8 µg/mL (≈ 19.2 µM) | 250 µg/mL (≈ 615 µM) | 125 µg/mL (≈ 308 µM) | inactive | 0 | 8 | 0 | 0 | 7 | 12.7 | 6 | 9.7 | – | – |
| COC(=O)CCSC1=C(Cl)C(=O)c2ccccc2C1=O | 0 | 0 | 7.8 µg/mL (≈ 25.1 µM) | 1.9 µg/mL (≈ 6.11 µM) | 7.8 µg/mL (≈ 25.1 µM) | inactive | inactive | 11 | 10.4 | 12.4 | 13 | 9 | 18 | 6 | 8 | – | – |
| O=C1C(SCc2ccc(Cl)cc2)=C(N2CCSCC2)C(=O)c2ccccc21 | 0 | 0 | 31.2 µg/mL (≈ 75 µM) | 7.8 µg/mL (≈ 18.8 µM) | 125 µg/mL (≈ 301 µM) | inactive | inactive | 0 | 0 | 0 | 0 | 7 | 13.4 | 0 | 0 | – | – |
| O=C1C(Cl)=C(Sc2c(Cl)c(Cl)c(Cl)c(Cl)c2Cl)C(=O)c2ccccc21 | 0 | 0 | 250 µg/mL (≈ 529 µM) | 125 µg/mL (≈ 264 µM) | inactive | inactive | inactive | 0 | 0 | 0 | 0 | 0 | 0 | 0 | 0 | – | – |
| COC(=O)CCSC1=C(SCCC(=O)OC)C(=O)c2ccccc2C1=O | 0 | 0 | 15.6 µg/mL (≈ 39.5 µM) | 15.6 µg/mL (≈ 39.5 µM) | 7.8 µg/mL (≈ 19.8 µM) | 250 µg/mL (≈ 634 µM) | inactive | 12.4 | 14.7 | 10 | 15 | 15.4 | 19.7 | 10 | 13.4 | – | – |
| O=C1C(SCc2ccc(Cl)cc2)=C(N2CCOCC2)C(=O)c2ccccc21 | 0 | 0 | inactive | inactive | inactive | inactive | inactive | 0 | 0 | 0 | 0 | 7 | 8 | 0 | 0 | – | – |
| O=C1C(SCc2ccc(Cl)cc2)=C(N2CCC(C(O)(c3ccccc3)c3ccccc3)CC2)C(=O)c2ccccc21 | 0 | 0 | 31.2 µg/mL (≈ 53.8 µM) | 7.8 µg/mL (≈ 13.4 µM) | inactive | inactive | inactive | 0 | 0 | 0 | 0 | 0 | 0 | 0 | 0 | – | – |
| O=C1C(Cl)=C(N2CCC(C(O)(c3ccccc3)c3ccccc3)CC2)C(=O)c2ccccc21 | 0 | 0 | inactive | inactive | inactive | inactive | inactive | 0 | 0 | 0 | 0 | 7.5 | 9 | 0 | 0 | – | – |
| O=C1C2=C(SCCCCSC3=C(SCCCCS2)C(=O)c2ccccc2C3=O)C(=O)c2ccccc21 | 0 | 0 | 15.6 µg/mL (≈ 28.2 µM) | 3.9 µg/mL (≈ 7.06 µM) | 1.9 µg/mL (≈ 3.44 µM) | 500 µg/mL (≈ 905 µM) | inactive | 16.4 | 19.4 | 9.7 | 11.4 | 21.4 | 25.4 | 10.4 | 12 | – | – |
| CCOC1=C(Sc2nccn2C)C(=O)c2ccccc2C1=O | 0 | 0 | 15.6 µg/mL (≈ 49.6 µM) | 250 µg/mL (≈ 795 µM) | inactive | inactive | inactive | 0 | 12 | 0 | 0 | 0 | 0 | 0 | 0 | – | – |
| NYSTATIN | – | – | – | – | – | – | – | – | – | – | – | – | – | – | – | 20 | 19 |
| CN[C@H](CC(C)C)C(=O)N[C@H]1C(=O)N[C@@H](CC(N)=O)C(=O)N[C@H]2C(=O)N[C@H]3C(=O)N[C@H](C(=O)N[C@H](C(=O)O)c4cc(O)cc(O)c4-c4cc3ccc4O)[C@H](O)c3ccc(c(Cl)c3)Oc3cc2cc(c3O[C@@H]2O[C@H](CO)[C@@H](O)[C@H](O)[C@H]2O[C@H]2C[C@](C)(N)[C@H](O)[C@H](C)O2)Oc2ccc(cc2Cl)[C@H]1O [VANCOMYCIN] | – | 14 | – | – | – | – | – | – | – | – | – | 18 | – | 15 | – | – | – |
